Measurements from patent US20120295982A1, “TREATING HUMAN MALE COPD PATIENTS WITH ORAL BEDORADRINE” (MediciNova, Inc., priority 2011, published 2012).
Counter-ions that a name gives are not always drawn.

Columns and labels:
[1] = test system: moderate-to-severe COPD patients; test: Phase Ib placebo-controlled test of i.v. MN-221 in moderate-to-severe COPD patients; type: in vivo, human; conditions: for FEV1 increase as compared to baseline (average): end of infusion
Experimental: This example provides certain preferred oral dosages for treating male COPD patients according to this invention. A randomized, double-blind, placebo-controlled phase Ib clinical test evaluated MN-221 in 48 moderate-to-severe COPD patients who received a 1 hour intravenous (i.v.) infusion of MN-221 at three different escalating dose levels (300 micrograms, 600 micrograms, or 1200 micrograms) or placebo.
(a) diagnosed (e.g., by clinical history, 20 pack/year smoking history, physical examination [PE], and spirometry) COPD treated for ≧3 months prior to Screen Visit 1; (b) ≧30% FEV1<80% and FEV1/FVC (forced vital capacity) ratio<0.7 at Screen Visits 1 and 2; and (c) increase in FEV1 of 12%, over the pre-albuterol FEV1 within 30 min after inhalation of up to 4 puffs of albuterol delivered by Metered Dose Inhaler (MDI) with spacer at the Screen Visit 1.
48 subjects with stable, moderate-to-severe chronic obstructive pulmonary disease were administered MN-221. The following does were administered. 10 μg/min for 15 min+3.3 μg/min for 45 min (1-hr infusion total dose 300 μg) or placebo; 20 μg/min for 15 min+6.67 μg/min for 45 min (1-hr infusion total dose 600 μg) or placebo; and 40 μg/min for 15 min+13.3 μg/min for 45 min (1-hr infusion total dose 1,200 μg) or placebo.

[2] = test system: patients with acute exacerbations of asthma (AEA); test: Placebo-controlled dose-escalating test of i.v. MN-221 plus standard of care in acute exacerbations of asthma (emergency department); type: in vivo, human
Experimental: This example provides certain preferred oral dosages for treating male COPD patients according to this invention. Initially, the efficacy and safety of administering intravenous MN-221 in combination with standard of care (SOC) for treating acute exacerbations of asthma (AEA) in an emergency department (ED) setting is determined. The testing was performed in a randomized, placebo-controlled, dose-escalating, setting. Twenty nine patients received SOC (nebulized albuterol and ipratropium plus oral corticosteroid). Patients with FEV1≦55% of predicted were randomized to MN-221 (240 or 450 μg infused over 15 min or 1080 μg over 2 hr) or Placebo. MN-221 was administered as follows: 16 μg/min for 15 min (total dose of 240 μg); 30 μg/min for 15 min (total dose of 450 μg); 16 μg/min for 15 min+8 μg/min for 105 min (total dose of 1,080 μg); and 2 patients received total dose of 1,995 μg. Safety, efficacy and PK parameters were monitored hourly throughout a 5 hr treatment period and a 24 hr follow-up visit. Nebulized albuterol (2.5 mg) and/or ipratropium (0.5 mg) was available hourly during screening and treatment phases. Efficacy endpoints included spirometry, dyspnea indexing, albuterol use, and hospitalization rates. The testing was completed with 13 patients (n=13) in SOC+Placebo and 16 patients (n=16) receiving SOC+MN-221; 5 at 240 μg, 6 at 450 μg, and 5 intended for a 1080 μg dose. Patients received Standard of Care (SOC) treatment in addition to adjunctive treatment with MN-221 or placebo. MN-221 was well-tolerated.

[3] = Oral bioavailability in rabbits; conditions: rabbit, in vivo, read-out: Oral F %
[4] = Oral bioavailability in rats; type: in vivo
[5] = Oral bioavailability in dogs; conditions: dog, in vivo, read-out: Oral F %

CN(C)C(=O)COc1ccc2c(c1)C[C@@H](NC[C@H](O)c1ccc(O)c(CCO)c1)CC2 [MN-221, bedoradrine sulfate]
FEV1 increase as compared to baseline (average) ([1]; 300 microgram 1-hr i.v. infusion, p=NS): 9.2%
Mean changes in PEFR (L/sec) ([1]; 600 and 1200 μg i.v. groups, greatest during 1-3 hr post infusion): higher than the all placebo group
Mean changes in PEFR (% predicted) ([1]; 600 and 1200 μg i.v. groups, greatest in first 3-4 hr post-infusion): higher than the all placebo group
FEV1 increase as compared to baseline (average) ([1]; 600 microgram 1-hr i.v. infusion, p=0.020): 16.2%
FEV1 increase as compared to baseline (average) ([1]; 1200 microgram 1-hr i.v. infusion, p=0.0025): 21.5%
FEV1 (%, predicted) ([1]; MN-221 treated subjects, i.v. infusion): improved
tolerability ([1]; i.v. infusions 300-1200 μg, COPD patients): well tolerated
heart rate relative to Placebo ([2]; all MN-221 group): minimally elevated
hospitalization rate ([2]; all MN-221 group (4/16), i.v. plus SOC): 25%
FEV1 (% predicted), change from baseline in AUC1-5 hr, higher vs. Placebo ([2]; all MN-221 group vs. Placebo): 43%
tolerability ([2]; i.v. MN-221 240-1080 μg plus standard of care, AEA patients): well-tolerated
electrocardiograph (ECG) findings ([2]; i.v. MN-221 plus SOC): No abnormal electrocardiograph (ECG) findings were observed
intensity of the majority of adverse events ([2]; i.v. MN-221 plus SOC): mild to moderate in intensity
bioavailability [3]: ≤ 3%
gender difference of oral bioavailability ([4]; orally administered, female vs male rats): greater bioavailability in female rats compared to male rats
bioavailability ([4]; rat, in vivo, po, rats, read-out: Oral F %): ≤ 3%
bioavailability [5]: 39%
